{"source": "patent US12691112B2", "about": "“FGFR tyrosine kinase inhibitors for the treatment of urothelial carcinoma” (Janssen Pharmaceutica NV, priority 2019, dated 2026)", "system": "subjects with metastatic or surgically unresectable urothelial cancer", "note": "Like-named read-outs stand apart in the source and are kept apart here."}
{"compound": "COc1cc(OC)cc(N(CCNC(C)C)c2ccc3ncc(-c4cnn(C)c4)nc3c2)c1", "note": "[erdafitinib, N-(3,5-dimethoxy-phenyl)-N′-(1-methylethyl)-N-[3-(1-methyl-1H-pyrazol-4-yl)quinoxalin-6-yl]ethane-1,2-diamine]", "values": [{"measurement": "Serious treatment-emergent: Dyspnea", "setting": "6 mg continuous, n = 78", "value": "1 (1) no. (%)"}, {"measurement": "Serious treatment-emergent: Eye disorders", "setting": "6 mg continuous, n = 78", "value": "3 (4) no. (%)"}, {"measurement": "Serious treatment-emergent: Gastrointestinal disorders", "setting": "6 mg continuous, n = 78", "value": "8 (10) no. (%)"}, {"measurement": "Serious treatment-emergent: Infections and infestations", "setting": "6 mg continuous, n = 78", "value": "13 (17) no. (%)"}, {"measurement": "Serious treatment-emergent: Metabolism and nutrition disorders", "setting": "6 mg continuous, n = 78", "value": "3 (4) no. (%)"}, {"measurement": "Serious treatment-emergent: Nervous system disorders", "setting": "6 mg continuous, n = 78", "value": "5 (6) no. (%)"}, {"measurement": "Serious treatment-emergent: Renal and urinary disorders", "setting": "6 mg continuous, n = 78", "value": "5 (6) no. (%)"}, {"measurement": "Serious treatment-emergent: Respiratory, thoracic, mediastinal disorders", "setting": "6 mg continuous, n = 78", "value": "3 (4) no. (%)"}, {"measurement": "Serious treatment-emergent: Urinary tract infection", "setting": "6 mg continuous, n = 78", "value": "4 (5) no. (%)"}, {"measurement": "Serious treatment-emergent: Urosepsis", "setting": "6 mg continuous, n = 78", "value": "3 (4) no. (%)"}, {"measurement": "Total number of patients with serious treatment-emergent adverse events", "setting": "6 mg continuous, n = 78", "value": "39 (50) no. (%)"}, {"measurement": "Serious treatment-emergent: Dyspnea", "setting": "8 mg continuous, n = 99", "value": "2 (2) no. (%)"}, {"measurement": "Serious treatment-emergent: Eye disorders", "setting": "8 mg continuous, n = 99", "value": "9 (9) no. (%)"}, {"measurement": "Serious treatment-emergent: Gastrointestinal disorders", "setting": "8 mg continuous, n = 99", "value": "8 (8) no. (%)"}, {"measurement": "Serious treatment-emergent: Infections and infestations", "setting": "8 mg continuous, n = 99", "value": "9 (9) no. (%)"}, {"measurement": "Serious treatment-emergent: Metabolism and nutrition disorders", "setting": "8 mg continuous, n = 99", "value": "2 (2) no. (%)"}, {"measurement": "Serious treatment-emergent: Nervous system disorders", "setting": "8 mg continuous, n = 99", "value": "1 (1) no. (%)"}, {"measurement": "Serious treatment-emergent: Renal and urinary disorders", "setting": "8 mg continuous, n = 99", "value": "10 (10) no. (%)"}, {"measurement": "Serious treatment-emergent: Respiratory, thoracic, mediastinal disorders", "setting": "8 mg continuous, n = 99", "value": "3 (3) no. (%)"}, {"measurement": "Serious treatment-emergent: Urinary tract infection", "setting": "8 mg continuous, n = 99", "value": "3 (3) no. (%)"}, {"measurement": "Serious treatment-emergent: Urosepsis", "setting": "8 mg continuous, n = 99", "value": "2 (2) no. (%)"}, {"measurement": "Total number of patients with serious treatment-emergent adverse events", "setting": "8 mg continuous, n = 99", "value": "39 (39) no. (%)"}, {"measurement": "Treatment-related Alanine aminotransferase increased, any grade", "setting": "8 mg continuous, n = 99", "value": "12 (12) no. (%)"}, {"measurement": "Treatment-related Alanine aminotransferase increased, grade 1", "setting": "8 mg continuous, n = 99", "value": "9 (9) no. (%)"}, {"measurement": "Treatment-related Alanine aminotransferase increased, grade 2", "setting": "8 mg continuous, n = 99", "value": "2 (2) no. (%)"}, {"measurement": "Treatment-related Alanine aminotransferase increased, grade 3", "setting": "8 mg continuous, n = 99", "value": "1 (1) no. (%)"}, {"measurement": "Treatment-related Alopecia, any grade", "setting": "8 mg continuous, n = 99", "value": "27 (27) no. (%)"}, {"measurement": "Treatment-related Alopecia, grade 1", "setting": "8 mg continuous, n = 99", "value": "21 (21) no. (%)"}, {"measurement": "Treatment-related Alopecia, grade 2", "setting": "8 mg continuous, n = 99", "value": "6 (6) no. (%)"}, {"measurement": "Treatment-related Alopecia, grade 3", "setting": "8 mg continuous, n = 99", "value": "0 no. (%)"}, {"measurement": "Treatment-related Asthenia, any grade", "setting": "8 mg continuous, n = 99", "value": "13 (13) no. (%)"}, {"measurement": "Treatment-related Asthenia, grade 1", "setting": "8 mg continuous, n = 99", "value": "2 (2) no. (%)"}, {"measurement": "Treatment-related Asthenia, grade 2", "setting": "8 mg continuous, n = 99", "value": "9 (9) no. (%)"}, {"measurement": "Treatment-related Asthenia, grade 3", "setting": "8 mg continuous, n = 99", "value": "2 (2) no. (%)"}, {"measurement": "Treatment-related Decreased appetite, any grade", "setting": "8 mg continuous, n = 99", "value": "25 (25) no. (%)"}, {"measurement": "Treatment-related Decreased appetite, grade 1", "setting": "8 mg continuous, n = 99", "value": "11 (11) no. (%)"}, {"measurement": "Treatment-related Decreased appetite, grade 2", "setting": "8 mg continuous, n = 99", "value": "14 (14) no. (%)"}, {"measurement": "Treatment-related Decreased appetite, grade 3", "setting": "8 mg continuous, n = 99", "value": "0 no. (%)"}, {"measurement": "Treatment-related Diarrhea, any grade", "setting": "8 mg continuous, n = 99", "value": "37 (37) no. (%)"}, {"measurement": "Treatment-related Diarrhea, grade 1", "setting": "8 mg continuous, n = 99", "value": "21 (21) no. (%)"}, {"measurement": "Treatment-related Diarrhea, grade 2", "setting": "8 mg continuous, n = 99", "value": "12 (12) no. (%)"}, {"measurement": "Treatment-related Diarrhea, grade 3", "setting": "8 mg continuous, n = 99", "value": "4 (4) no. (%)"}, {"measurement": "Treatment-related Dry eye, any grade", "setting": "8 mg continuous, n = 99", "value": "19 (19) no. (%)"}, {"measurement": "Treatment-related Dry eye, grade 1", "setting": "8 mg continuous, n = 99", "value": "14 (14) no. (%)"}, {"measurement": "Treatment-related Dry eye, grade 2", "setting": "8 mg continuous, n = 99", "value": "4 (4) no. (%)"}, {"measurement": "Treatment-related Dry eye, grade 3", "setting": "8 mg continuous, n = 99", "value": "1 (1) no. (%)"}, {"measurement": "Treatment-related Dry mouth, any grade", "setting": "8 mg continuous, n = 99", "value": "43 (43) no. (%)"}, {"measurement": "Treatment-related Dry mouth, grade 1", "setting": "8 mg continuous, n = 99", "value": "32 (32) no. (%)"}, {"measurement": "Treatment-related Dry mouth, grade 2", "setting": "8 mg continuous, n = 99", "value": "11 (11) no. (%)"}, {"measurement": "Treatment-related Dry mouth, grade 3", "setting": "8 mg continuous, n = 99", "value": "0 no. (%)"}, {"measurement": "Treatment-related Dry skin, any grade", "setting": "8 mg continuous, n = 99", "value": "32 (32) no. (%)"}, {"measurement": "Treatment-related Dry skin, grade 1", "setting": "8 mg continuous, n = 99", "value": "24 (24) no. (%)"}, {"measurement": "Treatment-related Dry skin, grade 2", "setting": "8 mg continuous, n = 99", "value": "8 (8) no. (%)"}, {"measurement": "Treatment-related Dry skin, grade 3", "setting": "8 mg continuous, n = 99", "value": "0 no. (%)"}, {"measurement": "Treatment-related Dysgeusia, any grade", "setting": "8 mg continuous, n = 99", "value": "35 (35) no. (%)"}, {"measurement": "Treatment-related Dysgeusia, grade 1", "setting": "8 mg continuous, n = 99", "value": "22 (22) no. (%)"}, {"measurement": "Treatment-related Dysgeusia, grade 2", "setting": "8 mg continuous, n = 99", "value": "12 (12) no. (%)"}, {"measurement": "Treatment-related Dysgeusia, grade 3", "setting": "8 mg continuous, n = 99", "value": "1 (1) no. (%)"}, {"measurement": "Treatment-related Fatigue, any grade", "setting": "8 mg continuous, n = 99", "value": "21 (21) no. (%)"}, {"measurement": "Treatment-related Fatigue, grade 1", "setting": "8 mg continuous, n = 99", "value": "8 (8) no. (%)"}, {"measurement": "Treatment-related Fatigue, grade 2", "setting": "8 mg continuous, n = 99", "value": "11 (11) no. (%)"}, {"measurement": "Treatment-related Fatigue, grade 3", "setting": "8 mg continuous, n = 99", "value": "2 (2) no. (%)"}, {"measurement": "Treatment-related Hand-foot syndrome, any grade", "setting": "8 mg continuous, n = 99", "value": "22 (22) no. (%)"}, {"measurement": "Treatment-related Hand-foot syndrome, grade 1", "setting": "8 mg continuous, n = 99", "value": "5 (5) no. (%)"}, {"measurement": "Treatment-related Hand-foot syndrome, grade 2", "setting": "8 mg continuous, n = 99", "value": "12 (12) no. (%)"}, {"measurement": "Treatment-related Hand-foot syndrome, grade 3", "setting": "8 mg continuous, n = 99", "value": "5 (5) no. (%)"}, {"measurement": "Treatment-related Hyperphosphatemia, any grade", "setting": "8 mg continuous, n = 99", "value": "72 (73) no. (%)"}, {"measurement": "Treatment-related Hyperphosphatemia, grade 1", "setting": "8 mg continuous, n = 99", "value": "49 (50) no. (%)"}, {"measurement": "Treatment-related Hyperphosphatemia, grade 2", "setting": "8 mg continuous, n = 99", "value": "21 (21) no. (%)"}, {"measurement": "Treatment-related Hyperphosphatemia, grade 3", "setting": "8 mg continuous, n = 99", "value": "2 (2) no. (%)"}, {"measurement": "Treatment-related Lacrimation increased, any grade", "setting": "8 mg continuous, n = 99", "value": "11 (11) no. (%)"}, {"measurement": "Treatment-related Lacrimation increased, grade 1", "setting": "8 mg continuous, n = 99", "value": "8 (8) no. (%)"}, {"measurement": "Treatment-related Lacrimation increased, grade 2", "setting": "8 mg continuous, n = 99", "value": "3 (3) no. (%)"}, {"measurement": "Treatment-related Lacrimation increased, grade 3", "setting": "8 mg continuous, n = 99", "value": "0 no. (%)"}, {"measurement": "Treatment-related Nail dystrophy, any grade", "setting": "8 mg continuous, n = 99", "value": "16 (16) no. (%)"}, {"measurement": "Treatment-related Nail dystrophy, grade 1", "setting": "8 mg continuous, n = 99", "value": "5 (5) no. (%)"}, {"measurement": "Treatment-related Nail dystrophy, grade 2", "setting": "8 mg continuous, n = 99", "value": "5 (5) no. (%)"}, {"measurement": "Treatment-related Nail dystrophy, grade 3", "setting": "8 mg continuous, n = 99", "value": "6 (6) no. (%)"}, {"measurement": "Treatment-related Onycholysis, any grade", "setting": "8 mg continuous, n = 99", "value": "16 (16) no. (%)"}, {"measurement": "Treatment-related Onycholysis, grade 1", "setting": "8 mg continuous, n = 99", "value": "4 (4) no. (%)"}, {"measurement": "Treatment-related Onycholysis, grade 2", "setting": "8 mg continuous, n = 99", "value": "10 (10) no. (%)"}, {"measurement": "Treatment-related Onycholysis, grade 3", "setting": "8 mg continuous, n = 99", "value": "2 (2) no. (%)"}, {"measurement": "Treatment-related Paronychia, any grade", "setting": "8 mg continuous, n = 99", "value": "14 (14) no. (%)"}, {"measurement": "Treatment-related Paronychia, grade 1", "setting": "8 mg continuous, n = 99", "value": "1 (1) no. (%)"}, {"measurement": "Treatment-related Paronychia, grade 2", "setting": "8 mg continuous, n = 99", "value": "10 (10) no. (%)"}]}
